This is an account of results in patent publication US20160158262A1, “METHODS OF TREATING IRRITABLE BOWEL SYNDROME” (CEDARS-SINAI MEDICAL CENTER, priority 2013, published 2016).

Data set [1] relates to non-selected population of IBS. The settings on record: cited from earlier work.
For data set [2], the system named is breath methane. The experiment in a line: Fasting breath sample for methane after therapy in the same trial. Type of data set: in vivo, human. Here is the method: (§1) Following completion of therapy, subjects were asked to continue with the weekly symptom questionnaires for an additional 4 weeks. During the final week of follow up, subjects were asked to repeat the 7-day stool diary followed by the final weekly questionnaire. Finally, subjects were asked to repeat a single fasting breath sample to examine for the presence of methane.
Subjects were asked to fast for 12 hours prior to a breath sample being obtained. Breath samples were collected via a Quintron dual bag collecting system (Quintron Instrument Company, Milwaukee, Wis.). The sampled gas was analyzed using a BreathTracker SC (Quintron Instrument Company, Milwaukee, Wis.). Output was reported as methane in parts per million (ppm) after correction for alveolar sample quality using breath CO2 concentration.
The primary outcome measure of this study was constipation severity as assessed on a VAS score from the first week following completion of the treatment phase. Secondary outcome measures included the severity of constipation, abdominal pain, urgency, bloating and straining over the entire study period. In addition, the eradication of methane was evaluated as a determinant of improvement at 4 weeks post therapy.

The test system of data set [3] is C-IBS subjects with methane. The experiment in a line: Randomized double-blind trial in methane-positive C-IBS subjects: weekly symptom severity questionnaires (VAS 0-100). Type of data set: in vivo, human. Here is the method: Consecutive C-IBS subjects (18-65 yrs of age) (Rome III criteria) were recruited after applying exclusion criteria. All subjects presented for a lactulose breath test after a 12 hour fast. Only subjects with methane level >3 ppm on at least 1 breath sample were enrolled. Subjects then completed a stool diary, questionnaire (100 point VAS scale for bloating, abdominal pain, constipation, diarrhea and straining) and 2 week run in phase. […] Questionnaires were repeated weekly during treatment and for 4 weeks following completion of treatment. On the last week of follow up, the stool diary was repeated.
Consecutive patients (18-65 yrs of age) who fulfilled the Rome II criteria for C-IBS^2 were recruited. Patients were included if they reported <3 complete and spontaneous bowel movements (CSBMs) per week and had breath methane >3 ppm. […] Subjects were also excluded if they had taken an antibiotic or probiotic in the previous 30 days or were currently taking narcotics, proton pump inhibitors, tricyclic antidepressants, or medications known to alter intestinal motility. All subjects provided informed written consent and the study was approved by the institutional review board of all three study sites. Subjects who completed the study received a stipend. The study was registered with clinicaltrials.gov (NCT00945334).
The allocation was concealed. […] The pharmacy, investigators and patients were blinded.
as §1
The baseline study questionnaire included subject demographics as well as symptom severity information. Follow-up questionnaires included a repeat evaluation of symptom severity. The following were assessed: abdominal pain, constipation, bloating, urgency, incomplete evacuation, straining and diarrhea. Severity was rated using a visual analog scale (VAS) from 0-100 mm (with 0=no symptom and 100=severe symptoms).
The primary outcome measure of this study was constipation severity as assessed on a VAS score from the first week following completion of the treatment phase. […] In addition, the eradication of methane was evaluated as a determinant of improvement at 4 weeks post therapy.
Data were expressed as mean±SD.
To examine the effect of each group over the duration of the study, a mixed longitudinal model was used. […] The models were analyzed with a single covariate (baseline diarrhea, constipation, abdominal pain, or bloating severity score). […]

The conditions of data set [4]: in vivo. The method, then: All subjects with a diagnosis of C-IBS presented for a fasting breath test after a 12 hour fast. Only subjects with methane level of >3 ppm on a single breath sample were enrolled. Subjects then completed a baseline study questionnaire and a baseline audiogram. […] Subjects were then asked to complete a daily stool diary for two weeks with weekly questionnaires for overall symptom severity. Subjects were eligible for randomization only if they were confirmed to have <3 CSBMs per week during stool diary.
The randomization scheme was set in blocks of 4 and each site received batches of drug in multiples of 4 to balance each study site into blocks. The allocation was concealed. The randomization was done by the drug company with a tracking list provided to the study site pharmacy in a concealed envelope. The pharmacy, investigators and patients were blinded. During the 14 days of treatment, subjects completed weekly symptom questionnaires (2 questionnaires over 2 weeks).
Baseline qualitative data and side effect rates were compared by Fisher's Exact Test. Quantitative baseline data was normal so were compared by t-Test. Data were expressed as mean±SD. The primary endpoint was also normally distributed and compared by t-test.

Data set [5] deals with methane. The settings on record: retrospective study; cited from earlier work.
Data set [6] concerns non-constipated IBS subjects. Conditions: cited from earlier work.
The mark [7] stands for this setting: by week 2 of treatment, 100 point VAS, mean±SD.

For neomycin, in data set [1], the “improvement of IBS compared to placebo” value is listed as “successful in improving IBS” and the “rate of normalizing the breath test” value is “poor rate”. Moreover, in data set [2] (fasting breath sample, final visit vs baseline), the “reduction in methane from baseline (median drop)” value stood at 7.5 ppm. For the same molecule, in data set [2] (final visit, of 15 subjects (rifaximin plus neomycin), out of 16 subjects (neomycin)), the “subjects with methane levels ≦3 ppm following treatment” value amounted to 11 subjects. In data set [3] (setting [7]), the “bloating severity (VAS)” value turned out to be 65.1±25.9 and the “constipation VAS score” value is 57.9±25.0. Further, the “difference in constipation severity between subjects with and without methane ≦3 ppm” value in data set [3] (final visit) is on record as “no significant difference”. For the same molecule, the “VAS score for constipation (primary endpoint)” value in data set [3] (one week after completion of 14 days of therapy, ITT, mean±SD) was 61.2±24.1. In data set [4], the “Side effect: Abdominal pain” value is recorded as 6 (38) n(%); the “Side effect: Bloating and distension” value is listed as 9 (56) n(%); the “Side effect: Constipation” value is given as 2 (13) n(%); the “Side effect: Diarrhea” value was 2 (13) n(%). For the same molecule, in data set [4], the “Side effect: Nausea” value is reported as 10 (63) n(%) and the “Side effect: Urgency” value is given as 2 (13) n(%). For the same molecule, the “benefit of single antibiotic” value in data set [5] is listed as “did not have a substantial benefit”.
With `CO[C@H]1/C=C/O[C@@]2(C)Oc3c(C)c(O)c4c(O)c(c5c(nc6cc(C)ccn65)c4c3C2=O)NC(=O)/C(C)=C\C=C\[C@H](C)[C@H](O)[C@@H](C)[C@@H](O)[C@@H](C)[C@H](OC(C)=O)[C@@H]1C` [Rifaximin, rifaximin], the “duration of benefits following cessation of therapy” value in data set [6] (after 14 days of rifaximin therapy, global symptom rating, bloating, stool consistency, abdominal pain) was 3 months. Moreover, the “efficacy versus placebo in the treatment of IBS” value in data set [6] (multiple published randomized trials) is reported as “superiority over placebo”. Further, the “benefit of single antibiotic” value in data set [5] is recorded as “did not have a substantial benefit”.
